{"source": "paper PMC8377175", "about": "“Antidiabetic effect of bio-enhanced preparation of turmeric in streptozotocin-nicotinamide induced type 2 diabetic Wistar rats” (Journal of Ayurveda and Integrative Medicine, 2021)", "key": {"[1]": {"test_system": "streptozotocin-nicotinamide induced type 2 diabetic Wistar rats", "test": "Fasting blood glucose and oral glucose tolerance test in STZ-NA diabetic rats", "format": "in vivo", "conditions": "mean ± SD; for OG1 (OGTT 60 min), Day 29 Readings (after treatment) / OG2 (OGTT 120 min), Day 29 Readings (after treatment) / OG1 (OGTT 60 min), Day 1 Readings (baseline) / OG2 (OGTT 120 min), Day 1 Readings (baseline): glucose 2 g/kg; for OG1 (OGTT 60 min), Day 29 Readings (after treatment) / OG2 (OGTT 120 min), Day 29 Readings (after treatment) / FBG, Day 29 Readings (after treatment) / FBG, Day 1 Readings (baseline) / OG1 (OGTT 60 min), Day 1 Readings (baseline) / OG2 (OGTT 120 min), Day 1 Readings (baseline): n = 6; for FBG, Day 1 Readings (baseline): Day 1 baseline (4th day after induction); for OG1 (OGTT 60 min), Day 1 Readings (baseline) / OG2 (OGTT 120 min), Day 1 Readings (baseline): Day 1 baseline; for Day 30 FBG: 30 days", "experimental": "This study was done at the Department of Pharmacology, Kasturba Medical College, […] Academy of Higher Education, […]. The diabetic model that we have used in this study was STZ-NA model. DM was induced in male Wistar rats by giving NA and STZ injections, intraperitoneally. […] Citrate buffer (0.1 M), which has been used as solvent for mixing STZ, was made by dissolving solution of trisodium citrate (294.10 mg in 100 mL of distilled water) with citric acid solution (210.10 mg in 100 mL of distilled water) to attain pH 4.5. Ice was kept around the glass beaker containing Citrate buffer to maintain citrate buffer at lower temperatures. Normal control rats were administered with Citrate buffer alone intraperitoneally. […] Wistar rats were divided into seven groups, each group had six rats. Treatment for all the groups was started on the 4th day after diabetes induction procedure. The same was considered as Day 1 for treatment and continued for 30 days. The animals were treated for 30 days. The treatment schedule of various groups were as follows: Normal control (NC) (1 mL of 1% Tween 80, per oral), Diabetic control (DC) (1 mL of 1% Tween 80, per oral), two Standard control groups were treated with GLIB (5 mg/kg, per oral) and MET (500 mg/kg, per oral), two test groups were treated with bio-BTE (30 mg/kg, per oral and 60 mg/kg, per oral) and one test group was treated with RTE (30 mg/kg, per oral). The vehicle used for the study in all the groups were 1% Tween 80. Oral feeding of drugs was done using steel oral gavage tube (16 G, 7.6 cm). During the treatment period, rats also received standard pelleted chow (VRK Nutritional solutions) and water ad libitum during treatment. […] FBG, OG1 and OG2 values were estimated from blood drops that were obtained from rat tail tip using Accu-Check Glucometer. […] These serum samples were stored at -80 °C before insulin levels were assayed using DRG Rat insulin ELISA Kit."}, "[2]": {"test_system": "streptozotocin-nicotinamide induced type 2 diabetic Wistar rats", "test": "Fasting serum insulin (DRG Rat insulin ELISA Kit) in STZ-NA diabetic rats", "format": "in vivo", "conditions": "30 days, mean ± SD", "experimental": "Wistar rats were divided into seven groups, each group had six rats. Treatment for all the groups was started on the 4th day after diabetes induction procedure. The same was considered as Day 1 for treatment and continued for 30 days. The animals were treated for 30 days. The treatment schedule of various groups were as follows: Normal control (NC) (1 mL of 1% Tween 80, per oral), Diabetic control (DC) (1 mL of 1% Tween 80, per oral), two Standard control groups were treated with GLIB (5 mg/kg, per oral) and MET (500 mg/kg, per oral), two test groups were treated with bio-BTE (30 mg/kg, per oral and 60 mg/kg, per oral) and one test group was treated with RTE (30 mg/kg, per oral). The vehicle used for the study in all the groups were 1% Tween 80. Oral feeding of drugs was done using steel oral gavage tube (16 G, 7.6 cm). […]\nFBG was estimated in all rats before administration of STZ and NA and had FBG level less than 126 mg/dl. […] FBG values were measured at 0 min (before glucose administration) and OGTT readings (OG1 and OG2) were measured at 60 and 120 min after administration of glucose solution. […] On Day 30 of treatment, FBG was measured and after anaesthetizing rats with ether, blood was collected from overnight fasted rats using cardiac puncture into red-coloured procoagulant vacutainers and centrifuged at 3000 rpm for 7 min to obtain serum. […]"}, "[3]": {"test_system": "streptozotocin-nicotinamide induced type 2 diabetic Wistar rats", "test": "HOMA2 calculator: insulin resistance, insulin sensitivity, beta-cell function, and their correlation with serum insulin", "format": "in vivo", "conditions": "30 days, mean ± SD", "experimental": "FBG, OG1 and OG2 values were estimated from blood drops that were obtained from rat tail tip using Accu-Check Glucometer. […] These serum samples were stored at −80 °C before insulin levels were assayed using DRG Rat insulin ELISA Kit. […] One-way ANOVA followed by post hoc analysis with Tukey test was conducted to evaluate statistically significant differences in the study variables between treatment groups. Pearson two-tailed correlation analysis was used to evaluate the correlation between serum insulin and IR; serum insulin and %B; and serum insulin & %S. SPSS version 21.0 was used to conduct statistical analysis in this study."}, "Body weight measurement": {"test": "Body weight measurement", "format": "in vivo, Wistar rats", "conditions": "for Body weight, Day 1: Day 1 of treatment (baseline), in g (unit assumed); for Body weight, Day 1 / Body weight, Day 30: mean ± SD; for Percentage change in body weight on Day 30 when compared to baseline, Gain (+)/Loss (−) / Body weight, Day 30: 30 days", "experimental": "Wistar rats were divided into seven groups, each group had six rats. Treatment for all the groups was started on the 4th day after diabetes induction procedure. The same was considered as Day 1 for treatment and continued for 30 days. The animals were treated for 30 days. The treatment schedule of various groups were as follows: Normal control (NC) (1 mL of 1% Tween 80, per oral), Diabetic control (DC) (1 mL of 1% Tween 80, per oral), two Standard control groups were treated with GLIB (5 mg/kg, per oral) and MET (500 mg/kg, per oral), two test groups were treated with bio-BTE (30 mg/kg, per oral and 60 mg/kg, per oral) and one test group was treated with RTE (30 mg/kg, per oral). The vehicle used for the study in all the groups were 1% Tween 80. Oral feeding of drugs was done using steel oral gavage tube (16 G, 7.6 cm). During the treatment period, rats also received standard pelleted chow (VRK Nutritional solutions) and water ad libitum during treatment.\nBody weight of the rats was measured before induction (on the day of induction), on Day 1 of treatment and also on Day 30 of treatment. Percentage change in body weight was calculated using the formula (BodyweightonDay30oftreatment−BodyweightonDay1oftreatment)/(BodyweightonDay1oftreatment)×100"}}, "note": "Marks after values point to notes of the source that are not given here."}
{"smiles": "COc1ccc(Cl)cc1C(=O)NCCc1ccc(S(=O)(=O)NC(=O)NC2CCCCC2)cc1", "note": "[GLIB, Glibenclamide]", "values": [{"measurement": "OG1 (OGTT 60 min), Day 29 Readings (after treatment)", "setting": "[1]; GLIB 5 mg/kg per oral daily", "result": "154.17 ± 76.55^b mg/dL"}, {"measurement": "OG2 (OGTT 120 min), Day 29 Readings (after treatment)", "setting": "[1]; GLIB 5 mg/kg per oral daily", "result": "117.50 ± 16.21^b mg/dL"}, {"measurement": "FBG, Day 29 Readings (after treatment)", "setting": "[1]; GLIB 5 mg/kg per oral daily", "result": "95.17 ± 27.97^b mg/dL"}, {"measurement": "FBG, Day 1 Readings (baseline)", "setting": "[1]; GLIB 5 mg/kg per oral group", "result": "130.5 ± 5.43^a mg/dL"}, {"measurement": "OG1 (OGTT 60 min), Day 1 Readings (baseline)", "setting": "[1]; GLIB 5 mg/kg per oral group", "result": "420.67 ± 21.71^a mg/dL"}, {"measurement": "OG2 (OGTT 120 min), Day 1 Readings (baseline)", "setting": "[1]; GLIB 5 mg/kg per oral group", "result": "358.50 ± 34.65^a mg/dL"}, {"measurement": "Day 30 FBG", "setting": "[1]; GLIB 5 mg/kg per oral", "result": "96.67 ± 26.49^b mg/dL"}, {"measurement": "Day 30 Serum Insulin", "setting": "[2]; GLIB 5 mg/kg per oral", "result": "145.68 ± 41.06^abd pmol/L"}, {"measurement": "Day 30 Beta cell function (%B)", "setting": "[3]; GLIB 5 mg/kg per oral", "result": "183.13 ± 68.69^b %"}, {"measurement": "Day 30 Insulin Resistance (IR)", "setting": "[3]; GLIB 5 mg/kg per oral", "result": "2.70 ± 0.84^abd"}, {"measurement": "Day 30 Insulin Sensitivity (%S)", "setting": "[3]; GLIB 5 mg/kg per oral", "result": "41.08 ± 16.03", "unit": "%"}, {"measurement": "Body weight, Day 1", "setting": "Body weight measurement; GLIB 5 mg/kg per oral group", "result": "179.67 ± 3.08"}, {"measurement": "Percentage change in body weight on Day 30 when compared to baseline, Gain (+)/Loss (−)", "setting": "Body weight measurement; GLIB 5 mg/kg per oral", "result": "+23%"}, {"measurement": "Body weight, Day 30", "setting": "Body weight measurement; GLIB 5 mg/kg per oral", "result": "221 ± 8.07^abcd"}]}
{"smiles": "CN(C)C(=N)N=C(N)N", "note": "[MET, Metformin]", "values": [{"measurement": "OG1 (OGTT 60 min), Day 29 Readings (after treatment)", "setting": "[1]; MET 500 mg/kg per oral daily", "result": "329.33 ± 12.91^abd mg/dL"}, {"measurement": "OG2 (OGTT 120 min), Day 29 Readings (after treatment)", "setting": "[1]; MET 500 mg/kg per oral daily", "result": "203.67 ± 58.96^b mg/dL"}, {"measurement": "FBG, Day 29 Readings (after treatment)", "setting": "[1]; MET 500 mg/kg per oral daily", "result": "144.83 ± 53.86^b mg/dL"}, {"measurement": "FBG, Day 1 Readings (baseline)", "setting": "[1]; MET 500 mg/kg per oral group", "result": "128.33 ± 5.32^a mg/dL"}, {"measurement": "OG1 (OGTT 60 min), Day 1 Readings (baseline)", "setting": "[1]; MET 500 mg/kg per oral group", "result": "421.67 ± 39.52^a mg/dL"}, {"measurement": "OG2 (OGTT 120 min), Day 1 Readings (baseline)", "setting": "[1]; MET 500 mg/kg per oral group", "result": "301.50 ± 64.05^a mg/dL"}, {"measurement": "Day 30 FBG", "setting": "[1]; MET 500 mg/kg per oral", "result": "141.00 ± 52.33^abcd mg/dL"}, {"measurement": "Day 30 Serum Insulin", "setting": "[2]; MET 500 mg/kg per oral", "result": "35.63 ± 16.81^c pmol/L"}, {"measurement": "Day 30 Beta cell function (%B)", "setting": "[3]; MET 500 mg/kg per oral", "result": "42.03 ± 37.09^acd %"}, {"measurement": "Day 30 Insulin Resistance (IR)", "setting": "[3]; MET 500 mg/kg per oral", "result": "0.73 ± 0.31^bc"}, {"measurement": "Day 30 Insulin Sensitivity (%S)", "setting": "[3]; MET 500 mg/kg per oral", "result": "160.70 ± 68.64^abcd %"}, {"measurement": "Body weight, Day 1", "setting": "Body weight measurement; MET 500 mg/kg per oral group", "result": "183.67 ± 7.82"}, {"measurement": "Percentage change in body weight on Day 30 when compared to baseline, Gain (+)/Loss (−)", "setting": "Body weight measurement; MET 500 mg/kg per oral", "result": "−12.07", "unit": "%"}, {"measurement": "Body weight, Day 30", "setting": "Body weight measurement; MET 500 mg/kg per oral", "result": "161.5 ± 7.74^acd"}]}
